Laboratory results reported in article PMC7291367, “Insightful Backbone Modifications Preventing Proteolytic Degradation of Neurotensin Analogs Improve NTS1-Induced Protective Hypothermia” (Frontiers in Chemistry, 2020).
Entries after “also recorded” stand apart in the source; their conditions may differ. Like-named read-outs stand apart in the source and are kept apart here. Numbered stars: 1 amine (or outer) side, 2 acyl side, 3 side chain; on linkers, the order of the positions; unused ones are H or OH. Square brackets hold non-standard residues; d marks the D form. Peptide text beside a SMILES is read from it. X1 = NCCCC[C@H](N)CN([C@@H](CCCCN)C(=O)[*:2])[*:1]; Ala(SiMe3) = C[Si](C)(C)C[C@H](N)C(=O)O; Dmt = Cc1cc(O)cc(C)c1C[C@H](N)C(=O)O; Tle = CC(C)(C)[C@H](N)C(=O)O

Columns and labels:
hNTS2 [1] = target: T1, hNTS2 (Homo sapiens, UniProt O95665); assay: Competitive radioligand binding assay, 125I-[Tyr3]-NT displacement, 1321N1 cell membranes; conditions: ratio of Ki hNTS1 to Ki hNTS2
T1 sequence (O95665 whole entry): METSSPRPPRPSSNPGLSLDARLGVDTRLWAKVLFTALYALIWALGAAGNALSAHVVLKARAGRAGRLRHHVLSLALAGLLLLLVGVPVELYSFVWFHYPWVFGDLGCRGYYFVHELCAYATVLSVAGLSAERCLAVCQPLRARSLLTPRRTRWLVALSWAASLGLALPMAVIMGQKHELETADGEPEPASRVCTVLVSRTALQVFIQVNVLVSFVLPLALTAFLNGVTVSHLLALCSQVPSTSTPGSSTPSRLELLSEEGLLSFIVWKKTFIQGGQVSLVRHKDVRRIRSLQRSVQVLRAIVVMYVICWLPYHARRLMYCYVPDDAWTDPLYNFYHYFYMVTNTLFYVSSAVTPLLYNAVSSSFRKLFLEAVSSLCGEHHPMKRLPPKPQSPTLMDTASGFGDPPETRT
Protocol: (§1) All media and additives are from Wisent (St-Bruno, QC). […] After 1 h of incubation at room temperature, the binding reaction mixture was transferred in polyethylenimine-coated 96-well-filter plates (Millipore, Billerica, MA). Reaction was terminated by filtration, and plates were washed three times with 200 μl of ice-cold binding buffer. […] Data were plotted using GraphPad Prism 8 using the One-site—Fit log (IC50) and represent the mean ± SEM of at least three separate experiments performed in triplicate.

hNTS1 [2] = target: T2, hNTS1 (Homo sapiens, UniProt P30989); conditions: 2015, cited from earlier work
T2 sequence (P30989 whole entry): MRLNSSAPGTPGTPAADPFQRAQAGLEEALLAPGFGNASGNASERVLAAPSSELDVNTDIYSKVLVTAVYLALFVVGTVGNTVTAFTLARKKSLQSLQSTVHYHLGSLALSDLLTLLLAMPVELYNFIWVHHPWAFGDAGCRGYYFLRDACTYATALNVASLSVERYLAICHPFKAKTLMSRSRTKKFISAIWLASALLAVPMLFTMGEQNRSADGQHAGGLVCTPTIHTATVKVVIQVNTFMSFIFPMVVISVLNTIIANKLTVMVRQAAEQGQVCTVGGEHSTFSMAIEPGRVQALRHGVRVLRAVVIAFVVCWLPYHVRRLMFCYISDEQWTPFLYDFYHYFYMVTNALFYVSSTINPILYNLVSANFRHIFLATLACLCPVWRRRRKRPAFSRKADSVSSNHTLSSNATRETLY

Sprague-Dawley rats = assay: Body temperature measurement after intrathecal injection; assay type: in vivo; conditions: rat; for effect on body temperature: compared to the saline-treated group; for Hypothermia ΔTemp: 30 μg/kg, i.t., change in body temperature from baseline at 60 min
Text: The experimental procedures in this study were approved by the Animal Care Committee of the Université de Sherbrooke (protocol n°035-18B) and were in accordance with policies and directives of the Canadian Council on Animal Care. Adult male Sprague-Dawley rats, weighing 175–225 g (Charles River laboratories, St-Constant, Québec, Canada), were maintained on a 12-h light/dark cycle with free access to food and water and were housed two per cage on Aspen shavings in a quiet room.
Rats were lightly anesthetized with isoflurane/oxygen (Baxter corporation, Mississauga, ON, Canada; 2 L/min) flow and 25 μl of each compound were injected intrathecally with a 27-G 1/2 needle (BD PrecisionGlide, USA) into the subarachnoid space between vertebrae L5 and L6. Analogs 1–14 were diluted in physiological saline at 5 mg/ml, whereas compounds 15 and 16 were diluted in DMSO. For body temperature measurement, the injected solution of these both compounds contained 6% DMSO at final concentration (30 μg/kg).
Three consecutive days prior to testing, animals were individually acclimatized to manipulations and to a thermistor probe 5 min per day. The day of the test, experiments were always performed in a quiet room and between 8:00 and 12:00 PM. to reduce any variation related to the circadian rhythm. Body temperature was measured using a thermistor probe inserted into the rectum of adult Sprague-Dawley rats. Temperatures were recorded immediately before (baseline) and each 10 min for up to 60 min following intrathecal administration of saline, vehicle (6% DMSO) or NT analogs at 30 μg/kg. Changes in body temperature (Δ body temp) from baseline were determined for each animal. Data are expressed as mean ± SEM of 5 to 20 animals per condition.
Data are expressed as mean ± standard errors of the mean (SEM). All graphs and statistical analysis were performed using GraphPad Prism 8 (GraphPad software, La Jolla, CA, USA). A two-way ANOVA followed by Bonferroni's multiple comparisons test was used to determine significant differences between drug- and vehicle-treated rats at different timepoints post-injection.

hNTS1 [3] = target: T2, hNTS1; assay: Competitive radioligand binding assay, 125I-[Tyr3]-NT displacement, CHO-K1 cell membranes
Protocol: as §1

hNTS2 [4] = target: T1, hNTS2; conditions: Ki values taken from the literature (Figure 1 legend) ref Fanelli et al., 2015; Eiselt et al., 2019; read-out: Binding, Ki hNTS2; cited from earlier work
[5] = Plasma stability assay (UPLC/MS); assay type: in vitro ADME; conditions: rat, plasma, 37°C, incubation up to 24 h
Protocol: Rat plasma was obtained from blood by keeping the translucent phase after centrifugation at 15,000 g over 5 min. Plasma stability assay was carried out by incubating each compound at different incubation times in rat plasma at a final concentration of 0.156 mM. […] Then, 70 μl of a solution containing 10% trichloroacetic acid (TCA) and 0.5% nicotinamine, an internal standard, was added to stop the degradation by proteases. After centrifugation at 15,000 g for 30 min, supernatant was filtered through 0.22-μm filter and analyzed by UPLC/MS (Water H Class Acquity UPLC, mounted with Acquity UPLC BEH C18 column, 1.7 μm, 2.1 × 50 mm and paired to a SQ Detector 2). Compounds 1, 2, and 5 were analyzed using the mass or UV spectrum. Quantification was done by determining the area under the curve (AUC) ratio of each compound over AUC of nicotinamine for each incubation time. Data were plotted into GraphPad Prism 8 and the half-life of each compound was calculated using one-phase decay fit and represented the mean ± SEM of minimum three separate experiments.

[6] = Ki values taken from the literature (Figure 1 legend) ref Fanelli et al., Eiselt et al., 2019, read-out: Binding, Ki hNTS1

Row | Structure (SMILES) | NTS1/NTS2 selectivity (hNTS2 [1]) | Ki (hNTS1 [2]; [6]) | Ki (hNTS1 [2]; ref Fanelli et al., read-out: Ki NTS1) | effect on body temperature (Sprague-Dawley rats; 30 μg/kg i.t.) | Hypothermia ΔTemp (Sprague-Dawley rats) | fold increase in affinity at NTS1 (hNTS1 [3]; compared to 1) | fold increase in affinity at NTS1 (hNTS1 [3]; compared to native NT(8-13)) | Ki (hNTS2 [4]) | temperature drop (Sprague-Dawley rats; for up to 60 min, 30 μg/kg i.t.) | half-life at 0.156 mM [5]
1 | CC[C@H](C)[C@H](NC(=O)[C@H](Cc1ccc(O)cc1)NC(=O)[C@@H]1CCCN1C(=O)[C@H](CCCCN)NC(=O)[C@@H](N)CCCCN)C(=O)N[C@@H](C[Si](C)(C)C)C(=O)O [Compound 3, H-Lys-Lys-Pro-Tyr-Ile-TMSAla-OH] (H-KKPYI[Ala(SiMe3)]-OH) | 0.1 | 0.018 ± 0.004 nM | ~0.02 nM | not effective in reducing the body temperature; also recorded: not effective to induce drop in body temperature | −0.07 ± 0.1 °C | 220 fold | 80 fold | 0.25 ± 0.07 nM | – | –
2 | Cc1cc(O)cc(C)c1C[C@H](NC(=O)[C@@H]1CCCN1C(=O)[C@H](CCCCN)NC[C@@H](N)CCCCN)C(=O)N[C@H](C(=O)N[C@@H](CC(C)C)C(=O)O)C(C)(C)C [Compound 16, H-Lysψ[CH2NH]Lys-Pro-Dmt-Tle-Leu-OH] (H-[X1]P[Dmt][Tle]L-OH) | 79 | 110 ± 2 nM | – | long-lasting hypothermia | −2.0 ± 0.3 °C | – | – | 1.4 ± 0.5 nM | more than 2 °C | > 20 h
